Assay results: PubChem BioAssay (NCI)
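GI50 is the concentration that inhibits growth by half. The concentration for full growth arrest is given as TGI.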

Legend:
Assay in all cases: NCI anticancer screen, dose series, 384-well format
[1] = tested on: SN12C renal
[2] = tested on: HL-60(TB) leukemia
[3] = tested on: HOP-62 NSCLC
[4] = tested on: DU-145 prostate
[5] = tested on: RPMI-8226 leukemia
[6] = tested on: T-47D breast
[7] = tested on: A498 renal
[8] = tested on: CAKI-1 renal
[9] = tested on: MALME-3M melanoma
[10] = tested on: HCC-2998 colon
[11] = tested on: MOLT-4 leukemia
[12] = tested on: HOP-92 NSCLC
[13] = tested on: MDA-MB-231 breast
[14] = tested on: M14 melanoma
[15] = tested on: KM12 colon
[16] = tested on: SK-OV-3 ovarian
[17] = tested on: RXF 393 renal
[18] = tested on: SW-620 colon
[19] = tested on: SR leukemia
[20] = tested on: TK-10 renal
[21] = tested on: HS 578T breast
[22] = tested on: IGROV1 ovarian
[23] = tested on: BT-549 breast
[24] = tested on: SNB-75 CNS
[25] = tested on: MDA-MB-468 breast
[26] = tested on: NCI-H322M lung
[27] = tested on: SK-MEL-5 melanoma
[28] = tested on: SF-295 CNS
[29] = tested on: NCI-H460 NSCLC
[30] = tested on: PC-3 prostate
[31] = tested on: HT29 colon
[32] = tested on: NCI-H522 lung
[33] = tested on: OVCAR-3 ovarian
[34] = tested on: U251 glioblastoma
[35] = tested on: HCT-116 colon
[36] = tested on: 786-0 renal
[37] = tested on: NCI-H23 lung
[38] = tested on: ACHN renal
[39] = tested on: SF-539 CNS
[40] = tested on: SK-MEL-28 melanoma
[41] = tested on: A549 NSCLC
[42] = tested on: SNB-19 CNS
[43] = tested on: NCI/ADR-RES ovarian
[44] = tested on: LOX IMVI melanoma
[45] = tested on: NCI-H226 lung
[46] = tested on: EKVX NSCLC
[47] = tested on: MDA-MB-435 melanoma
[48] = tested on: SF-268 CNS
[49] = tested on: OVCAR-8 ovarian
[50] = tested on: UACC-62 melanoma
[51] = tested on: UO-31 renal
[52] = tested on: UACC-257 melanoma
[53] = tested on: OVCAR-5 ovarian
[54] = tested on: HCT-15 colon
[55] = tested on: COLO 205 colon
[56] = tested on: MCF7 breast
[57] = tested on: OVCAR-4 ovarian

## Cc1ccc(NC(=O)c2ccc(CN3CCN(C)CC3)cc2)cc1Nc1nccc(-c2cccnc2)n1
[1]
  GI50: 24.7 µM
  TGI: 64.4 µM
[2]
  GI50: 5.97 µM
  TGI: 16 µM
[3]
  GI50: 14.2 µM
  TGI: 27.4 µM
[4]
  GI50: 17.1 µM
  TGI: 31.1 µM
[5]
  GI50: 11.2 µM
  TGI: 23.3 µM
[6]
  GI50: 6.92 µM
  TGI: 20 µM
[7]
  GI50: 6.8 µM
  TGI: 19 µM
[8]
  GI50: 16.7 µM
  TGI: 30.5 µM
[9]
  GI50: 2.58 µM
  TGI: 5.42 µM
[10]
  GI50: 5.93 µM
  TGI: 17.5 µM
[11]
  GI50: 4.23 µM
  TGI: 15.4 µM
[12]
  GI50: 13.7 µM
  TGI: 28.1 µM
[13]
  GI50: 12.6 µM
  TGI: 26.7 µM
[14]
  GI50: 5.66 µM
  TGI: 16.7 µM
[15]
  GI50: 14.3 µM
  TGI: 27.6 µM
[16]
  GI50: 19.7 µM
  TGI: 37.1 µM
[17]
  GI50: 3.61 µM
  TGI: 16.2 µM
[18]
  GI50: 20.6 µM
  TGI: 41.2 µM
[19]
  GI50: 8.83 µM
  TGI: 19.6 µM
[20]
  GI50: 20.3 µM
  TGI: 43.1 µM
[21]
  GI50: 12.9 µM
  TGI: 25.6 µM
[22]
  GI50: 12.5 µM
  TGI: 25.2 µM
[23]
  GI50: 12.1 µM
  TGI: 24.6 µM
[24]
  GI50: 21.7 µM
  TGI: 36.2 µM
[25]
  GI50: 5.1 µM
  TGI: 17.9 µM
[26]
  GI50: 8.53 µM
  TGI: 21.2 µM
[27]
  GI50: 10.4 µM
  TGI: 22.2 µM
[28]
  GI50: 14.2 µM
  TGI: 27.8 µM
[29]
  GI50: 16.6 µM
  TGI: 30.9 µM
[30]
  GI50: 16 µM
  TGI: 31.1 µM
[31]
  GI50: 2.66 µM
  TGI: 6.67 µM
[32]
  GI50: 12 µM
  TGI: 24.7 µM
[33]
  GI50: 17.1 µM
  TGI: 31.8 µM
[34]
  GI50: 14.1 µM
  TGI: 28 µM
[35]
  GI50: 6.25 µM
  TGI: 18.8 µM
[36]
  GI50: 2.87 µM
  TGI: 7.97 µM
[37]
  GI50: 11.5 µM
  TGI: 24.3 µM
[38]
  GI50: 15.4 µM
  TGI: 29 µM
[39]
  GI50: 9.13 µM
  TGI: 21.4 µM
[40]
  GI50: 14.4 µM
  TGI: 27.7 µM
[41]
  GI50: 16.5 µM
  TGI: 35.1 µM
[42]
  GI50: 22.1 µM
  TGI: 49.3 µM
[43]
  GI50: 17.2 µM
  TGI: 32.1 µM
[44]
  GI50: 4.25 µM
  TGI: 14.9 µM
[45]
  GI50: 6.87 µM
  TGI: 19.1 µM
[46]
  GI50: 15.5 µM
  TGI: 29.8 µM
[47]
  GI50: 16.7 µM
  TGI: 31.4 µM
[48]
  GI50: 18.7 µM
  TGI: 36.2 µM
[49]
  GI50: 14.8 µM
  TGI: 28.4 µM
[50]
  GI50: 13.6 µM
  TGI: 26.7 µM
[51]
  GI50: 15.8 µM
  TGI: 30.6 µM
[52]
  GI50: 2.49 µM
  TGI: 6.18 µM
[53]
  GI50: 13.4 µM
  TGI: 36.8 µM
[54]
  GI50: 2.48 µM
  TGI: 5.73 µM
[55]
  GI50: 16.3 µM
  TGI: 29.9 µM
[56]
  GI50: 10.6 µM
  TGI: 22.7 µM
[57]
  GI50: 16.2 µM
  TGI: 30.7 µM
